Reference: ChEMBL document CHEMBL1126444, “Synthesis and structure-activity relationships of heterocyclic analogues of the functional M1 selective muscarinic agonist hexyloxy-TZTP” (Bioorg Med Chem Lett, 1992)

Tests used:
[1] = target: Muscarinic acetylcholine receptor; experiment: Displacement of [3H]-OXO-M (oxotremorine-M) from the central muscarinic receptor sites of the rat brain membranes; format: cell membranes, Membrane
Oryctolagus cuniculus [2] = organism: Oryctolagus cuniculus; experiment: Percent maximum inhibition of the twitch response in the electrically stimulated rabbit vas deferens was determined.; format: functional
Oryctolagus cuniculus [3] = organism: Oryctolagus cuniculus; experiment: Compound was evaluated for the inhibition of the twitch response in the electrically stimulated rabbit vas deferens; format: functional
[4] = target: T1, Muscarinic acetylcholine receptor M1 (Rattus norvegicus, UniProt P08482); experiment: Displacement of [3H]-Pz (pirenzepine) from the muscarinic receptor M1 of the rat hippocampus; format: tissue-based
T1 sequence (P08482 whole entry): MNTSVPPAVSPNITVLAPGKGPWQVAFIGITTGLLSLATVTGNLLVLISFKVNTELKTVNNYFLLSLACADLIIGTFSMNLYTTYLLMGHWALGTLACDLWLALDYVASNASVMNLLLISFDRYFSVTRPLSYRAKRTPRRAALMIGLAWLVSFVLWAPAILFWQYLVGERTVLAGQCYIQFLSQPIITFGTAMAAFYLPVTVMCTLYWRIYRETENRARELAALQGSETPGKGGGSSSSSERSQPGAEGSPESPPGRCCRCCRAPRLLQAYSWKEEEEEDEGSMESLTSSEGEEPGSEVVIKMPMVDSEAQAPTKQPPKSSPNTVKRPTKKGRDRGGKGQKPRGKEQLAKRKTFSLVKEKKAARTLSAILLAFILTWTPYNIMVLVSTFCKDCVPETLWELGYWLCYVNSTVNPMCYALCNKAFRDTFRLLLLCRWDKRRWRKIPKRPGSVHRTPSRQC

Row | SMILES | IC50 [1] | IC50 (Oryctolagus cuniculus [3]) | IC50 [4] | Inhibition (Oryctolagus cuniculus [2])
1 | CCCCOc1noc(C)c1C1=CCCN(C)C1 | 759 nM | – | – | –
2 | CCCCCCOc1cscc1C1=CCCN(C)C1 | > 900 nM | 39000 nM | 663 nM | 93%
3 | CCCCOc1cscc1C1=CCCN(C)C1 | 477 nM | – | 369 nM | 18%
4 | CCCCCCOc1nscc1C1=CCCN(C)C1 | > 900 nM | – | 715 nM | 43%
5 | CCCCCCOc1nsnc1C1=CCCN(C)C1 [XANOMELINE] | – | – | – | 88%
6 | C[N+](C)(C)CC#CCOC(=O)Nc1cccc(Cl)c1.[Cl-] | 355 nM | – | – | 91%
7 | CCCCOc1nscc1C1=CCCN(C)C1 | 544 nM | – | 565 nM | 18%

Second part, led by results:

Row | IC50 [1] | IC50 (Oryctolagus cuniculus [3]) | IC50 [4] | SMILES | Inhibition (Oryctolagus cuniculus [2])
8 | 24 nM | – | – | CCCCOc1nonc1C1=CCCN(C)C1 | 12%
9 | 1.4 nM | – | – | CCCCOc1nsnc1C1=CCCN(C)C1 | –
10 | 70 nM | – | – | CCCCCCOc1nonc1C1=CCCN(C)C1 | 47%
